From ChEMBL document CHEMBL3045770, “Design and synthesis of some thieno[2,3-c]pyridazine derivatives of expected anticancer activity” (2013)

How the values were obtained:
Type in all cases: functional
MDA-MB-231 = assay: Cytotoxicity against Homo sapiens (human) MDA-MB-231 assessed as cell growth at 10 uM after 48 hr by SRB assay relative to control; conditions: MDA-MB-231, 48 h, read-out: Activity
COLO 205 = assay: Cytotoxicity against Homo sapiens (human) COLO205 assessed as cell growth at 10 uM after 48 hr by SRB assay relative to control; conditions: COLO 205, 48 h, read-out: Activity
SF-539 = assay: Cytotoxicity against Homo sapiens (human) SF539 assessed as cell growth at 10 uM after 48 hr by SRB assay relative to control; conditions: SF-539, 48 h, read-out: Activity
HCT-15 = assay: Cytotoxicity against Homo sapiens (human) HCT15 assessed as cell growth at 10 uM after 48 hr by SRB assay relative to control; conditions: HCT-15, 48 h, read-out: Activity
SR = assay: Cytotoxicity against Homo sapiens (human) SR assessed as cell growth at 10 uM after 48 hr by SRB assay relative to control; conditions: read-out: Activity
T47D = assay: Cytotoxicity against Homo sapiens (human) T47D assessed as cell growth at 10 uM after 48 hr by SRB assay relative to control; conditions: read-out: Activity
UACC-257 = assay: Cytotoxicity against Homo sapiens (human) UACC257 assessed as cell growth at 10 uM after 48 hr by SRB assay relative to control; conditions: UACC-257, 48 h, read-out: Activity
SNB-75 = assay: Cytotoxicity against Homo sapiens (human) SNB75 assessed as cell growth at 10 uM after 48 hr by SRB assay relative to control; conditions: SNB-75, 48 h, read-out: Activity
SW-620 = assay: Cytotoxicity against Homo sapiens (human) SW620 assessed as cell growth at 10 uM after 48 hr by SRB assay relative to control; conditions: SW-620, 48 h, read-out: Activity
TK-10 = assay: Cytotoxicity against Homo sapiens (human) TK10 assessed as cell growth at 10 uM after 48 hr by SRB assay relative to control; conditions: TK-10, 48 h, read-out: Activity
ACHN = assay: Cytotoxicity against Homo sapiens (human) ACHN assessed as cell growth at 10 uM after 48 hr by SRB assay relative to control; conditions: read-out: Activity
RPMI-8226 = assay: Cytotoxicity against Homo sapiens (human) RPMI8226 assessed as cell growth at 10 uM after 48 hr by SRB assay relative to control; conditions: RPMI-8226, 48 h, read-out: Activity
MDA-MB-468 = assay: Cytotoxicity against Homo sapiens (human) MDA-MB-468 assessed as cell growth at 10 uM after 48 hr by SRB assay relative to control; conditions: MDA-MB-468, 48 h, read-out: Activity
RXF 393 = assay: Cytotoxicity against Homo sapiens (human) RXF393 assessed as cell growth at 10 uM after 48 hr by SRB assay relative to control; conditions: RXF 393, 48 h, read-out: Activity
SF-268 = assay: Cytotoxicity against Homo sapiens (human) SF268 assessed as cell growth at 10 uM after 48 hr by SRB assay relative to control; conditions: SF-268, 48 h, read-out: Activity
U-251 = assay: Cytotoxicity against Homo sapiens (human) U251 assessed as cell growth at 10 uM after 48 hr by SRB assay relative to control; conditions: U-251, 48 h, read-out: Activity
OVCAR-8 = assay: Cytotoxicity against Homo sapiens (human) OVCAR8 assessed as cell growth at 10 uM after 48 hr by SRB assay relative to control; conditions: OVCAR-8, 48 h, read-out: Activity
SK-MEL-2 = assay: Cytotoxicity against Homo sapiens (human) SK-MEL-2 assessed as cell growth at 10 uM after 48 hr by SRB assay relative to control; conditions: SK-MEL-2, 48 h, read-out: Activity
HOP-92 = assay: Cytotoxicity against Homo sapiens (human) HOP92 assessed as cell growth at 10 uM after 48 hr by SRB assay relative to control; conditions: HOP-92, 48 h, read-out: Activity
NCI-H322M = assay: Cytotoxicity against Homo sapiens (human) NCI-H322M assessed as cell growth at 10 uM after 48 hr by SRB assay relative to control; conditions: read-out: Activity

Work on CSc1nnc(-c2sc3nnc(-c4ccccc4)c(-c4ccccc4)c3c2O)o1 yielded a growth at 10 µM (MDA-MB-231) of 90.4%, a growth at 10 µM (COLO 205) of 110% and a growth at 10 µM (SF-539) of 84.6%. The growth at 10 µM (HCT-15) was 54.6%, the growth at 10 µM (SR) was 62.5% and the growth at 10 µM (T47D) was 75%. The growth at 10 µM (UACC-257) was 91.6%, the growth at 10 µM (SNB-75) was 78.4% and the growth at 10 µM (SW-620) was 92.5%. It also gave a growth at 10 µM (TK-10) of 100%, a growth at 10 µM (ACHN) of 83.6% and a growth at 10 µM (RPMI-8226) of 67.2%. The growth at 10 µM (MDA-MB-468) was 78.9%, the growth at 10 µM (RXF 393) was 82.6% and the growth at 10 µM (SF-268) was 80.6%. It also gave a growth at 10 µM (U-251) of 62.9%, a growth at 10 µM (OVCAR-8) of 85.8% and a growth at 10 µM (SK-MEL-2) of 102%.
Work on Oc1c(-c2n[nH]c(=S)o2)sc2nnc(-c3ccccc3)c(-c3ccccc3)c12 yielded a growth at 10 µM (MDA-MB-231) of 109%, a growth at 10 µM (COLO 205) of 106% and a growth at 10 µM (SF-539) of 106%. For the same compound, the growth at 10 µM (HOP-92) was 72.3%, the growth at 10 µM (HCT-15) was 103% and the growth at 10 µM (SR) was 83.4%. For the same compound, the growth at 10 µM (T47D) was 105%, the growth at 10 µM (UACC-257) was 97% and the growth at 10 µM (SNB-75) was 72.6%. The growth at 10 µM (SW-620) was 124%, the growth at 10 µM (TK-10) was 103% and the growth at 10 µM (ACHN) was 92.4%. The growth at 10 µM (RPMI-8226) was 102%, the growth at 10 µM (MDA-MB-468) was 108% and the growth at 10 µM (RXF 393) was 109%. For the same compound, the growth at 10 µM (SF-268) was 102%, the growth at 10 µM (U-251) was 106% and the growth at 10 µM (OVCAR-8) was 106%. For the same compound, the growth at 10 µM (SK-MEL-2) was 106%.
Compound CC1=NN(C(=O)c2sc3nnc(-c4ccccc4)c(-c4ccccc4)c3c2O)C(=O)C1 has a growth at 10 µM (MDA-MB-231) of 122%, a growth at 10 µM (COLO 205) of 111% and a growth at 10 µM (SF-539) of 109%. It also gave a growth at 10 µM (HOP-92) of 69.5%, a growth at 10 µM (HCT-15) of 49% and a growth at 10 µM (SR) of 68.6%. For the same compound, the growth at 10 µM (T47D) was 82.2%, the growth at 10 µM (UACC-257) was 86.8% and the growth at 10 µM (SNB-75) was 90%. The growth at 10 µM (SW-620) was 79.4%, the growth at 10 µM (TK-10) was 103% and the growth at 10 µM (ACHN) was 73.2%. The growth at 10 µM (RPMI-8226) was 59.3%, the growth at 10 µM (MDA-MB-468) was 80.5% and the growth at 10 µM (RXF 393) was 95.6%. For the same compound, the growth at 10 µM (SF-268) was 88.3%, the growth at 10 µM (U-251) was 71.7% and the growth at 10 µM (OVCAR-8) was 87%. The growth at 10 µM (SK-MEL-2) was 110%.
Work on CCOC(=O)c1c(Nc2ccc(S(=O)(=O)Nc3nccs3)cc2)nnc(-c2ccccc2)c1-c1ccccc1 yielded a growth at 10 µM (MDA-MB-231) of 115%, a growth at 10 µM (COLO 205) of 114% and a growth at 10 µM (SF-539) of 117%. It also gave a growth at 10 µM (HOP-92) of 84.3%, a growth at 10 µM (HCT-15) of 106% and a growth at 10 µM (SR) of 76.2%. The growth at 10 µM (T47D) was 104%, the growth at 10 µM (UACC-257) was 104% and the growth at 10 µM (SNB-75) was 104%. The growth at 10 µM (SW-620) was 131%, the growth at 10 µM (TK-10) was 109% and the growth at 10 µM (ACHN) was 102%. It also gave a growth at 10 µM (RPMI-8226) of 96.5%, a growth at 10 µM (MDA-MB-468) of 110% and a growth at 10 µM (RXF 393) of 120%. For the same compound, the growth at 10 µM (SF-268) was 112%, the growth at 10 µM (U-251) was 98.5% and the growth at 10 µM (OVCAR-8) was 102%. It also gave a growth at 10 µM (SK-MEL-2) of 118%.
Work on Oc1c(-c2nnc(SCc3ccccc3)o2)sc2nnc(-c3ccccc3)c(-c3ccccc3)c12 yielded a growth at 10 µM (MDA-MB-231) of 97.9%, a growth at 10 µM (COLO 205) of 122% and a growth at 10 µM (NCI-H322M) of 93.6%. For the same compound, the growth at 10 µM (SF-539) was 122%, the growth at 10 µM (HOP-92) was 52.5% and the growth at 10 µM (HCT-15) was 93.6%. It also gave a growth at 10 µM (SR) of 106%, a growth at 10 µM (T47D) of 104% and a growth at 10 µM (UACC-257) of 134%. The growth at 10 µM (SNB-75) was 87.8%, the growth at 10 µM (SW-620) was 109% and the growth at 10 µM (TK-10) was 92.9%. The growth at 10 µM (ACHN) was 104%, the growth at 10 µM (RPMI-8226) was 92.9% and the growth at 10 µM (MDA-MB-468) was 101%. The growth at 10 µM (RXF 393) was 90%, the growth at 10 µM (SF-268) was 103% and the growth at 10 µM (U-251) was 122%. The growth at 10 µM (OVCAR-8) was 104% and the growth at 10 µM (SK-MEL-2) was 93.1%.
CCOC(=O)c1c(Nc2ccc(S(N)(=O)=O)cc2)nnc(-c2ccccc2)c1-c1ccccc1 gave a growth at 10 µM (MDA-MB-231) of 108%, a growth at 10 µM (COLO 205) of 113% and a growth at 10 µM (SF-539) of 108%. It also gave a growth at 10 µM (HOP-92) of 86.5%, a growth at 10 µM (HCT-15) of 93.4% and a growth at 10 µM (SR) of 76.1%. For the same compound, the growth at 10 µM (T47D) was 91.3%, the growth at 10 µM (UACC-257) was 101% and the growth at 10 µM (SNB-75) was 84.6%. It also gave a growth at 10 µM (SW-620) of 105%, a growth at 10 µM (TK-10) of 108% and a growth at 10 µM (ACHN) of 97.6%. It also gave a growth at 10 µM (RPMI-8226) of 80.9%, a growth at 10 µM (MDA-MB-468) of 97.9% and a growth at 10 µM (RXF 393) of 109%. It also gave a growth at 10 µM (SF-268) of 105%, a growth at 10 µM (U-251) of 95% and a growth at 10 µM (OVCAR-8) of 99.8%. For the same compound, the growth at 10 µM (SK-MEL-2) was 123%.
